Experimental data from ChEMBL document CHEMBL1201862, “PubChem BioAssay data set” (2004).
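Results reflect a 48-hour exposure of cells in 96-well plates to compound at five concentrations. GI50 is the concentration that inhibits growth by half.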 Calls of active or inactive are those of the source. Cut-off read from the data, not from the text of the source: active = GI50 up to about 1.1 µM and inactive = higher.

Assays:
Experiment in all cases: inhibition of tumour cell growth, NCI panel, 48 h
MDA-N = test system: MDA-N
PC-3 = test system: PC-3
OVCAR-8 = test system: OVCAR-8
T47D = test system: T47D
MDA-MB-435 = test system: MDA-MB-435
MCF7 = test system: MCF7
BT-549 = test system: BT-549
NCI-H226 = test system: NCI-H226
SK-MEL-5 = test system: SK-MEL-5
A498 = test system: A498
ACHN = test system: ACHN
HOP-62 = test system: HOP-62
CCRF-CEM = test system: CCRF-CEM
LOX IMVI = test system: LOX IMVI
MOLT-4 = test system: MOLT-4
KM-20L2 = test system: KM-20L2
DLD-1 = test system: DLD-1
M19-MEL = test system: M19-MEL

SMILES	GI50 (MDA-N)	GI50 (PC-3)	GI50 (OVCAR-8)	GI50 (T47D)	GI50 (MDA-MB-435)	GI50 (MCF7)	GI50 (BT-549)	GI50 (NCI-H226)	GI50 (SK-MEL-5)	GI50 (A498)	GI50 (ACHN)	GI50 (HOP-62)	GI50 (CCRF-CEM)	GI50 (LOX IMVI)	GI50 (MOLT-4)	GI50 (KM-20L2)	GI50 (DLD-1)	GI50 (M19-MEL)
CC(C)NC(=O)CN1CCN(C2=C(Cl)C(=O)c3c(O)ccc(O)c3C2=O)CC1	1.49 µM (inactive)	1.89 µM (inactive)	0.861 µM (active)	1.91 µM (inactive)	1.62 µM (inactive)	1.49 µM (inactive)	1.49 µM (inactive)	21.5 µM (inactive)	2 µM (inactive)	3.05 µM (inactive)	2.15 µM (inactive)	7.45 µM (inactive)	0.293 µM (active)	0.65 µM (active)	0.36 µM (active)			
NC(CCCCCCCCCCP(=O)(O)O)C(=O)O (configuration not stated)	> 100 µM (inactive)	> 100 µM (inactive)	> 100 µM (inactive)	> 100 µM (inactive)	> 100 µM (inactive)	> 100 µM (inactive)			> 100 µM (inactive)		> 100 µM (inactive)		> 100 µM (inactive)	> 100 µM (inactive)	> 100 µM (inactive)			
O=C(O)/C(Cc1ccnc2ccccc12)=N\O	> 100 µM (inactive)	> 100 µM (inactive)	> 100 µM (inactive)	> 100 µM (inactive)	> 100 µM (inactive)	> 100 µM (inactive)	> 100 µM (inactive)	> 100 µM (inactive)	> 100 µM (inactive)	> 100 µM (inactive)	> 100 µM (inactive)	> 100 µM (inactive)	> 100 µM (inactive)	> 100 µM (inactive)	> 100 µM (inactive)			
OC1(c2ccccc2)CC2CCC(C1)N2CCc1ccccc1 (configuration not stated)	56.8 µM (inactive)	41.6 µM (inactive)	92.9 µM (inactive)	45 µM (inactive)	55.5 µM (inactive)	28.6 µM (inactive)	40.1 µM (inactive)	61 µM (inactive)	13.7 µM (inactive)	19 µM (inactive)	34.7 µM (inactive)	45.4 µM (inactive)	34 µM (inactive)	54.7 µM (inactive)	29.7 µM (inactive)			
CN1c2ccccc2C(=O)NC12CCN(CCCC(=O)c1ccc(F)cc1)CC2	88.7 µM (inactive)	78.2 µM (inactive)	> 100 µM (inactive)	29 µM (inactive)	56.8 µM (inactive)	55 µM (inactive)	58.3 µM (inactive)	> 100 µM (inactive)	26.1 µM (inactive)		> 100 µM (inactive)	> 100 µM (inactive)	84.7 µM (inactive)		21.1 µM (inactive)			
C1CC2=C(C1)[Se]C(=C1Sc3nsnc3S1)[Se]2	21.7 µM (inactive)	> 100 µM (inactive)	> 100 µM (inactive)	> 100 µM (inactive)	39 µM (inactive)	> 100 µM (inactive)	> 100 µM (inactive)	> 100 µM (inactive)	> 100 µM (inactive)		> 100 µM (inactive)	> 100 µM (inactive)	> 100 µM (inactive)	> 100 µM (inactive)	> 100 µM (inactive)			
COC(=O)C1=C(C)N2CCOC2(C)C(C(=O)OC)C1c1ccc[nH]1 (configuration not stated)			> 100 µM (inactive)					> 100 µM (inactive)	> 100 µM (inactive)		> 100 µM (inactive)	> 100 µM (inactive)	> 100 µM (inactive)		> 100 µM (inactive)	> 100 µM (inactive)	> 100 µM (inactive)	> 100 µM (inactive)
CCOC(=O)Cn1c(=O)c2cc(C)cc3c(Cl)nc4c(OC)c(OC)cc1c4c32	> 100 µM (inactive)	> 100 µM (inactive)	> 100 µM (inactive)		> 100 µM (inactive)	72.8 µM (inactive)	56.6 µM (inactive)	> 100 µM (inactive)	> 100 µM (inactive)		> 100 µM (inactive)	> 100 µM (inactive)	> 100 µM (inactive)	> 100 µM (inactive)	> 100 µM (inactive)			
CCOc1ccc2nc(NC(=O)C(=O)C3C(=O)C(CC4C(=O)c5ccccc5C4=O)C(=O)CC3(C)C)sc2c1 (configuration not stated)	> 100 µM (inactive)	65.8 µM (inactive)	> 100 µM (inactive)		> 100 µM (inactive)	> 100 µM (inactive)	> 100 µM (inactive)	> 100 µM (inactive)	96.4 µM (inactive)		> 100 µM (inactive)	> 100 µM (inactive)	30.8 µM (inactive)	> 100 µM (inactive)	13.5 µM (inactive)			
CC(C)(C)[Si](C)(C)OCC1OC(n2cnc3c(N)ncnc32)CC1OS(C)(=O)=O (configuration not stated)	> 100 µM (inactive)	> 100 µM (inactive)	> 100 µM (inactive)	> 100 µM (inactive)	> 100 µM (inactive)	> 100 µM (inactive)	54 µM (inactive)	> 100 µM (inactive)		43 µM (inactive)		45.8 µM (inactive)	> 100 µM (inactive)	> 100 µM (inactive)	> 100 µM (inactive)			
